Measured values taken from ChEMBL document CHEMBL5625209, “Rational design and optimization of acylthioureas as novel potent influenza virus non-nucleoside polymerase inhibitors” (Eur J Med Chem, 2023).
Activity calls are given as the source filed them. No cut-off for these calls is given here.

Experiments:
[1] = Metabolic stability in mouse liver microsomes assessed as half life preincubated for 5 mins followed by NADPH addition and measured upto 45 mins by LC-MS analysis; format: ADME, Microsome; details: time < 50 min
[2] = Metabolic stability in dog liver microsomes assessed as half life preincubated for 5 mins followed by NADPH addition and measured upto 45 mins by LC-MS analysis; format: ADME, Canis lupus familiaris, Microsome; details: time < 50 min
[3] = Metabolic stability in human liver microsomes assessed as half life preincubated for 5 mins followed by NADPH addition and measured upto 45 mins by LC-MS analysis; format: ADME, Microsome; details: time < 50 min
[4] = Metabolic stability in mouse liver microsomes assessed as intrinsic clearance preincubated for 5 mins followed by NADPH addition and measured upto 45 mins by LC-MS analysis; format: ADME, Microsome; details: time < 50 min, read-out: CLH
[5] = Metabolic stability in dog liver microsomes assessed as intrinsic clearance preincubated for 5 mins followed by NADPH addition and measured upto 45 mins by LC-MS analysis; format: ADME, Canis lupus familiaris, Microsome; details: time < 50 min, read-out: CLH
[6] = Metabolic stability in human liver microsomes assessed as intrinsic clearance preincubated for 5 mins followed by NADPH addition and measured upto 45 mins by LC-MS analysis; format: ADME, Microsome; details: time < 50 min, read-out: CLH
[7] = Metabolic stability in mouse liver microsomes assessed as hepatic clearance preincubated for 5 mins followed by NADPH addition and measured upto 45 mins by LC-MS analysis; format: ADME, Microsome; details: time < 50 min
[8] = Metabolic stability in dog liver microsomes assessed as hepatic clearance preincubated for 5 mins followed by NADPH addition and measured upto 45 mins by LC-MS analysis; format: ADME, Canis lupus familiaris, Microsome; details: time < 50 min
[9] = Metabolic stability in human liver microsomes assessed as hepatic clearance preincubated for 5 mins followed by NADPH addition and measured upto 45 mins by LC-MS analysis; format: ADME, Microsome; details: time < 50 min
[10] = Metabolic stability in mouse liver microsomes assessed as hepatic extraction ratio preincubated for 5 mins followed by NADPH addition and measured upto 45 mins by LC-MS analysis; format: ADME, Microsome; details: time < 50 min
[11] = Metabolic stability in dog liver microsomes assessed as hepatic extraction ratio preincubated for 5 mins followed by NADPH addition and measured upto 45 mins by LC-MS analysis; format: ADME, Canis lupus familiaris, Microsome; details: time < 50 min
[12] = Metabolic stability in human liver microsomes assessed as hepatic extraction ratio preincubated for 5 mins followed by NADPH addition and measured upto 45 mins by LC-MS analysis; format: ADME, Microsome; details: time < 50 min
[13] = system: Influenza A virus; experiment: Antiviral activity against Influenza A virus H1N1 (A/Puerto Rico/8/34) infected in MDCK cells assessed as reduction in virus-induced cytopathic effect incubated for 48 hrs by CCK8 assay; format: functional, organism-based
[14] = system: Influenza A virus; experiment: Inhibition of Influenza A virus RdRp activity assessed as reduction in Fluc/Rluc ratio at 0.1 to 10 uM; details: dose 0.1-10 µM
[15] = system: Influenza A virus; experiment: Antiviral activity against Influenza A virus H1N1 (A/Puerto Rico/8/34) infected in MDCK cells assessed as reduction in NP protein level at 1 uM in presence of 1000 uM rNTP by Western blot analysis; format: functional, organism-based
[16] = Cytotoxicity against MDCK cells by CCK-8 assay; format: toxicity, cell-based, Canis lupus familiaris; details: dog
[17] = Selectivity index, ratio of CC50 for MDCK cells to EC50 for antiviral activity against Influenza A virus H1N1 (A/Puerto Rico/8/34) infected in MDCK cells; format: toxicity, cell-based; details: dog, read-out: Ratio CC50/EC50
[18] = Half life in Sprague-Dawley rat at 3 mg/kg, iv measured up to 24 hrs by LC-MS analysis; format: ADME, organism-based; details: in vivo
[19] = Half life in Sprague-Dawley rat at 10 mg/kg, po measured up to 24 hrs by LC-MS analysis; format: ADME, organism-based; details: in vivo
[20] = Tmax in Sprague-Dawley rat at 3 mg/kg, iv measured up to 24 hrs by LC-MS analysis; format: ADME, organism-based; details: in vivo
[21] = Tmax in Sprague-Dawley rat at 10 mg/kg, po measured up to 24 hrs by LC-MS analysis; format: ADME, organism-based; details: in vivo
[22] = Cmax in Sprague-Dawley rat at 3 mg/kg, iv measured up to 24 hrs by LC-MS analysis; format: ADME, organism-based; details: in vivo
[23] = Cmax in Sprague-Dawley rat at 10 mg/kg, po measured up to 24 hrs by LC-MS analysis; format: ADME, organism-based; details: in vivo
[24] = AUC(0 to infinity) in Sprague-Dawley rat at 10 mg/kg, po measured up to 24 hrs by LC-MS analysis; format: ADME, organism-based; details: in vivo
[25] = AUC(0 to t) in Sprague-Dawley rat at 3 mg/kg, iv measured up to 24 hrs by LC-MS analysis; format: ADME, organism-based; details: in vivo
[26] = AUC(0 to t) in Sprague-Dawley rat at 10 mg/kg, po measured up to 24 hrs by LC-MS analysis; format: ADME, organism-based; details: in vivo
[27] = AUC(0 to infinity) in Sprague-Dawley rat at 3 mg/kg, iv measured up to 24 hrs by LC-MS analysis; format: ADME, organism-based; details: Sprague-Dawley, in vivo
[28] = Clearance in Sprague-Dawley rat at 3 mg/kg, iv measured up to 24 hrs by LC-MS analysis; format: ADME, organism-based; details: in vivo
[29] = Oral bioavailability in Sprague-Dawley rat at 10 mg/kg measured up to 24 hrs by LC-MS analysis; format: ADME, organism-based; details: in vivo
[30] = system: Influenza B virus; experiment: Antiviral activity against influenza B virus B/Yamagata/16/88 infected in MDCK cells; format: functional, organism-based; details: B/Yamagata/16/88, MDCK
[31] = system: Influenza B virus; experiment: Antiviral activity against influenza B virus Victoria/2/87 infected in MDCK cells; format: functional, organism-based; details: Victoria/2/87, MDCK
[32] = system: Influenza A virus; experiment: Antiviral activity against Influenza A virus H1N1 (A/Puerto Rico/8/34) infected in MDCK cells assessed as reduction in nucleocapsid protein level by Western blot analysis; format: functional, organism-based; details: dose 2-125 nM
[33] = system: Influenza A virus; experiment: Antiviral activity against Influenza A virus H1N1 (A/Puerto Rico/8/34) infected in MDCK cells assessed as reduction in nucleocapsid protein mRNA level by qRT-PCR analysis; format: functional, organism-based; details: dose 2-31.3 nM
[34] = system: Influenza A virus; experiment: Antiviral activity against Influenza A virus H1N1 (A/Puerto Rico/8/34) infected in MDCK cells assessed as reduction in viral proliferation at 20 nM pre-infected with virus for 1 hr followed by compound addition and measured after 48 hrs by crystal violet staining based plaque formation assay; format: functional, organism-based
[35] = Metabolic stability in human plasma assessed as remaining compound measured upto 120 mins by LC-MS/MS analysis; format: ADME, cell-free; details: read-out: Stability
[36] = Metabolic stability in human plasma assessed as half life measured upto 120 mins by LC-MS/MS analysis; format: ADME, cell-free
[37] = Toxicity in BALB/c mouse assessed as animal death at 1 g/kg, IG administered 3 times per day and measured for 14 days; details: in vivo, po, 1000 mg/kg, 336 h, time 14 day
[38] = Toxicity in BALB/c mouse assessed as lethargy at 1 g/kg, IG administered 3 times per day and measured for 14 days; details: in vivo, po, 1000 mg/kg, 336 h, time 14 day
[39] = Toxicity in BALB/c mouse assessed as clonic convulsion at 1 g/kg, IG administered 3 times per day and measured for 14 days; details: in vivo, po, 1000 mg/kg, 336 h, time 14 day
[40] = Toxicity in BALB/c mouse assessed as anorexia at 1 g/kg, IG administered 3 times per day and measured for 14 days; details: in vivo, po, 1000 mg/kg, 336 h, time 14 day
[41] = Toxicity in BALB/c mouse assessed as ruffled fur at 1 g/kg, IG administered 3 times per day and measured for 14 days; details: in vivo, po, 1000 mg/kg, 336 h, time 14 day
[42] = Toxicity in BALB/c mouse assessed as body weight loss at 1 g/kg, IG administered 3 times per day; details: in vivo, po, 1000 mg/kg
[43] = Toxicity in BALB/c mouse assessed as body weight loss at 1 g/kg, IG administered 3 times per day and measured on day 4 to 9; details: in vivo, po, 1000 mg/kg, time 4-9 day
[44] = system: Influenza A virus; experiment: Antiviral activity against Influenza A virus H1N1 (A/Puerto Rico/8/34) infected in BALB/c mouse at 100 mg/kg/day, po administered twice daily for 7 days and measured after 14 days; format: functional; details: time 14 day
[45] = system: Influenza A virus; experiment: Antiviral activity against Influenza A virus H1N1 (A/Puerto Rico/8/34) infected in MDCK cells assessed as reduction in NP viral RNA level at 1 uM treated at 4 hrs post infection by qRT-PCR analysis; format: functional, organism-based
[46] = system: Influenza A virus; experiment: Antiviral activity against Influenza A virus H1N1 (A/Puerto Rico/8/34) infected in MDCK cells assessed as reduction in NP protein level at 1 uM treated at 4 hrs post infection by Western blot analysis; format: functional, organism-based
[47] = system: Influenza A virus; experiment: Inhibition of Influenza A virus RdRp activity assessed as reduction in Fluc/Rluc ratio; details: dose 0.5-50 µM
[48] = system: Influenza A virus; experiment: Antiviral activity against Influenza A virus H1N1 (A/Puerto Rico/8/34) infected in MDCK cells assessed as reduction in NP protein level at 1 uM in presence of rNTP by Western blot analysis; format: functional, organism-based
[49] = system: Influenza A virus; experiment: Antiviral activity against Influenza A virus H1N1 (A/Puerto Rico/8/34) infected in MDCK cells assessed as reduction in NP protein level at 1 uM in presence of 125 uM rNTP by Western blot analysis; format: functional, organism-based
[50] = system: Influenza A virus; experiment: Antiviral activity against Influenza A virus H1N1 (A/Puerto Rico/8/34) infected in MDCK cells assessed as reduction in NP protein level at 1 uM in presence of rUTP by Western blot analysis; format: functional, organism-based
[51] = system: Influenza A virus; experiment: Antiviral activity against Influenza A virus H1N1 (A/Puerto Rico/8/34) infected in MDCK cells assessed as reduction in NP protein level at 1 uM in presence of rCTP by Western blot analysis; format: functional, organism-based

## O=C(c1ccc(F)cc1)C1CCN(CCn2c(=O)[nH]c3ccccc3c2=O)CC1 [KETANSERIN]
[1]
  half-life: 0.31 h
[2]
  half-life: 0.809 h
[3]
  half-life: 0.621 h
[4]
  CLint scaled: 293 mL/min/kg
[5]
  CLint scaled: 71.2 mL/min/kg
[6]
  CLint scaled: 46.7 mL/min/kg
[7]
  CLhep predicted: 68.8 mL/min/kg
[8]
  CLhep predicted: 21.6 mL/min/kg
[9]
  CLhep predicted: 14.3 mL/min/kg
[10]
  hepatic extraction ratio at 0.75 h: 76.5%
[11]
  hepatic extraction ratio at 0.75 h: 69.7%
[12]
  hepatic extraction ratio at 0.75 h: 69.3%

## CC(=O)N[C@H]1[C@H]([C@H](O)[C@H](O)CO)OC(C(=O)O)=C[C@@H]1NC(=N)N [ZANAMIVIR]
[13]
  EC50: 65 nM
[14]
  inhibition: inactive
[15]
  Activity: Active

## CC(C)(C)c1ccc(C(=O)NC(=S)Nc2ccc(NC(=O)c3ccc(C(C)(C)C)cc3)cc2)cc1
[13]
  EC50: 1 nM
[16]
  CC50: > 100000 nM
[17]
  selectivity ratio: > 120000
[18]
  half-life: 3.69 h
[19]
  half-life: 3.26 h
[20]
  Tmax: 4.8 min
[21]
  Tmax: 4 h
[22]
  Cmax: 41900 ng/mL
[23]
  Cmax: 1180 ng/mL
[24]
  AUC(0-inf): 5400 ng·h/mL
[25]
  AUC(0-t) at 24 h: 21900 ng·h/mL
[26]
  AUC(0-t) at 24 h: 5420 ng·h/mL
[27]
  AUC(0-inf): 21900 ng·h/mL
[28]
  clearance: 2.29 mL/min/kg
[29]
  bioavailability: 7.38%
[30]
  EC50: 50 nM
[31]
  EC50: 40 nM
[32]
  Activity: Dose-Dependent Effect
[33]
  Activity: Dose-Dependent Effect
[34]
  Activity: Active
[1]
  half-life: 0.891 h
[2]
  half-life: 1.04 h
[3]
  half-life: 1.28 h
[4]
  CLint scaled: 102 mL/min/kg
[5]
  CLint scaled: 55.1 mL/min/kg
[6]
  CLint scaled: 22.7 mL/min/kg
[7]
  CLhep predicted: 47.8 mL/min/kg
[8]
  CLhep predicted: 19.8 mL/min/kg
[9]
  CLhep predicted: 10.8 mL/min/kg
[10]
  hepatic extraction ratio at 0.75 h: 53.1%
[11]
  hepatic extraction ratio at 0.75 h: 64.1%
[12]
  hepatic extraction ratio at 0.75 h: 52.3%
[35]
  remaining at 2 h: 64%
[36]
  half-life: 3.2 h
[37]
  Activity: Non-Toxic
[38]
  Activity: Non-Toxic
[39]
  Activity: Non-Toxic
[40]
  Activity: Non-Toxic
[41]
  Activity: Non-Toxic
[42]
  Activity: Toxic
[43]
  Activity: Non-Toxic
[44]
  Activity: 50%
[45]
  Activity: Active
[46]
  Activity: Active
[47]
  inhibition: Dose-Dependent Effect
[48]
  Activity: inactive
[49]
  Activity: inactive
[50]
  Activity: inactive
[51]
  Activity: inactive
